In patent US7015221B2, “2,4-disubstituted triazine derivatives” (Janssen Pharmaceutica, N.V., priority 1998, dated 2006):

Experiments:
[1] = Cytotoxicity in mock-infected MT-4 cells (MTT); format: cell-based; details: human, concentration reducing absorbance of mock-infected MT-4 control by 50%

melting point [°C]	Compound	CC50 [1] [µM]
245 to 247	CC(C)c1cc(Br)c(Nc2ncnc(Nc3ccc(C#N)cc3)n2)c(Br)c1 [Compound 8, 4-[[4-[[2,6-dibromo-4-(1-methylethyl)phenyl]amino]-1,3,5-triazin-2-yl]amino]benzonitrile]	–
–	Cc1cc(C)c(Oc2ncnc(Nc3ccc(C#N)cc3)n2)c(C)c1 [Compound 2, 4-[[4-(2,4,6-trimethylphenoxy)-1,3,5-triazin-2-yl]amino]benzonitrile]	> 100
–	Cc1cc(C)c(Sc2ncnc(Nc3ccc(C#N)cc3)n2)c(C)c1 [Compound 4, 4-[[4-[(2,4,6-trimethylphenyl)thio]-1,3,5-triazin-2-yl]amino]benzonitrile]	> 100
